Experiments:
Assay type in all cases: physicochemical
[1] = Relaxivity measurements at 3.0 T; details: 37° C., normalized to Gd, average ± standard deviation
Method: Relaxivity measurements at 3.0 T were performed with a whole body 3.0 T MRI Scanner (Philips Intera, Philips Healthcare, Hamburg, Germany) using a knee-coil (SENSE-Knee-8, Philips Healthcare, Hamburg, Germany). The sample tubes (CryoTubetm Vials, Thermo Scientific 1.8 mL, Roskilde, Denmark) were positioned in 3 rows of 4 and 5 tubes in a plastic holder in a box filled with water. The temperature was adjusted to 37° C. For the MRI sequence, the shortest possible echo-time (TE) with 7.46 milliseconds was used. The inversion times were chosen to optimize the sequence to measure T1 values corresponding to the estimated T1 range of all relaxation times of contrast media containing solutions. The following inversion times (TIs) were applied: 50, 100, 150, 200, 300, 500, 700, 1000, 1400, 2100, 3200, and 4500 milliseconds. The sequence was run with a constant relaxation delay of 3.4 seconds after the registration of the last echo (variable TR in the range from 3450 to 7900 milliseconds). For details of the fit procedure, see Rohrer et. al. (Invest. Radiol. 2005; 40, 11: 715-724). The experimental matrix of the phantom measurement was 320×320.
The relaxivities were evaluated using three different concentrations of each compound (3 concentrations between 0.05 and 2 mM).
(§1) The T1 relaxation times of the Example compounds 1-6 were measured in water and human plasma. Human plasma preparation: For each experiment fresh blood was taken from a volunteer using 10 mL citrate-tubes (Sarstedt S-Monovette 02.1067.001, 10 mL, Citrate). The 10 mL citrate-tubes were carefully inverted 10 times to mix blood and anticoagulant and centrifuged for 15 minutes at 1811 g at room temperature (Eppendorf, Centrifuge 5810R).
The relaxivities ri (where i=1, 2) were calculated on the basis of the measured relaxation rates Ri in water and plasma: Ri=Ri(0)+ri[CGd], where Ri(0) represent the relaxation rate of the respective solvent and CGd the concentration of the compound normalized to the Gadolinium (Table 2).

[2] = Relaxivity measurements at 1.41 T; details: 1.41 T, 37° C., normalized to Gd; for r1 FBS: fetal bovine serum
Method: Relaxivity measurements at 1.41 T were performed using a MiniSpec mq60 spectrometer (Bruker Analytik, Karlsruhe, Germany) operating at a resonance frequency of 60 MHz and a temperature of 37° C. The T1 relaxation times were determined using the standard inversion recovery (IR) method with a fixed relaxation delay of at least 5×T1. The variable inversion time (TI) was calculated automatically by the standard software of the MiniSpec mq60 (8 steps). The T2 measurements were done by using a Carr-Purcell-Meiboom-Gill (CPMG) pulse sequence, applying a relaxation delay of at least 5×T1.
Each relaxivity measurement was performed using three different Gd concentrations (3 concentrations between 0.05 and 2 mM). The T1 and T2 relaxation times of the example compounds 1-10 were measured in different media for example in water, fetal bovine serum (FBS, Sigma, F7524) and human plasma.
as §1, with “Human” for “The T1 relaxation times of the Example compounds 1-6 were measured in water and human plasma. Human”
The relaxivities ri (where i=1, 2) were calculated on the basis of the measured relaxation rates Ri in water and plasma: Ri=Ri(0)+ri[CGd], where Ri(0) represent the relaxation rate of the respective solvent and CGd the concentration of the compound normalized to the Gadolinium. The Gadolinium concentrations of the investigated solutions were verified by Inductively Coupled Plasma Mass Spectroscopy (ICP-MS Agilent 7500a, Waldbronn, Germany).

[3] = Chemical stability (autoclaving at 121° C.); details: 5 mmol Gd/L in 10 mM Tris-HCl buffer, pH 7.4, 121° C. for 20 min
[4] = Water solubility; details: 10 mM Tris-HCl buffer, 20° C.
Method: The water solubility of the compounds was determined at room temperature (20° C.) in 0.5 mL buffer solution (10 mM Tris-HCl) in the microcentrifuge tubes (Eppendorf, 2.0 mL safe-lock caps). The solid compound was added stepwise to the buffer solution. The suspension was mixed using a shaker (Heidolph Reax 2000) and treated 5 min in an ultrasound bath (Bandelin, Sonorex Super RK255H) The suspension was stored at room temperature (20° C.) over night and final Gadolinium concentration was determined by inductively coupled plasma mass spectrometry (ICP-MS).

Compound	r1 human plasma [1] [L/mmol/s]	r1 water [1] [L/mmol/s]	r1 FBS [2] [L/mmol/s]	r1 human plasma [2] [L/mmol/s]	r1 water [2] [L/mmol/s]	appearance of the solution after autoclaving [3]	Solubility [4] [mmol Gd/L]
CC(C(=O)NCC(=O)NCC(CNC(=O)CNC(=O)C(C)N1CCN(CC(=O)[O-])CCN(CC(=O)[O-])CCN(CC(=O)[O-])CC1)C(=O)NCCN(CCNC(=O)C(CNC(=O)CNC(=O)C(C)N1CCN(CC(=O)[O-])CCN(CC(=O)[O-])CCN(CC(=O)[O-])CC1)CNC(=O)CNC(=O)C(C)N1CCN(CC(=O)[O-])CCN(CC(=O)[O-])CCN(CC(=O)[O-])CC1)C(=O)CNC(=O)C(C)N1CCN(CC(=O)[O-])CCN(CC(=O)[O-])CCN(CC(=O)[O-])CC1)N1CCN(CC(=O)[O-])CCN(CC(=O)[O-])CCN(CC(=O)[O-])CC1.[Gd+3].[Gd+3].[Gd+3].[Gd+3].[Gd+3] (stereo not drawn) [Example 1]	10.8 ± 0.1	9.5 ± 0.2	13.2	13.0	11.1	still clear and colorless	>1200
CC(C(=O)NCC(=O)NCC(CNC(=O)CNC(=O)C(C)N1CCN(CC(=O)[O-])CCN(CC(=O)[O-])CCN(CC(=O)[O-])CC1)C(=O)NCCN(CCNC(=O)C(CNC(=O)CNC(=O)C(C)N1CCN(CC(=O)[O-])CCN(CC(=O)[O-])CCN(CC(=O)[O-])CC1)CNC(=O)CNC(=O)C(C)N1CCN(CC(=O)[O-])CCN(CC(=O)[O-])CCN(CC(=O)[O-])CC1)C(=O)C(CNC(=O)CNC(=O)C(C)N1CCN(CC(=O)[O-])CCN(CC(=O)[O-])CCN(CC(=O)[O-])CC1)CNC(=O)CNC(=O)C(C)N1CCN(CC(=O)[O-])CCN(CC(=O)[O-])CCN(CC(=O)[O-])CC1)N1CCN(CC(=O)[O-])CCN(CC(=O)[O-])CCN(CC(=O)[O-])CC1.[Gd+3].[Gd+3].[Gd+3].[Gd+3].[Gd+3].[Gd+3] (stereo not drawn) [Example 2]	11.4 ± 0.1	9.2 ± 0.3	13.4	13.9	12.1	still clear and colorless	>1200
CC(C(=O)NCC(=O)N(CCNC(=O)C1CN(C(=O)CNC(=O)C(C)N2CCN(CC(=O)[O-])CCN(CC(=O)[O-])CCN(CC(=O)[O-])CC2)CCN(C(=O)CNC(=O)C(C)N2CCN(CC(=O)[O-])CCN(CC(=O)[O-])CCN(CC(=O)[O-])CC2)C1)CCNC(=O)C1CN(C(=O)CNC(=O)C(C)N2CCN(CC(=O)[O-])CCN(CC(=O)[O-])CCN(CC(=O)[O-])CC2)CCN(C(=O)CNC(=O)C(C)N2CCN(CC(=O)[O-])CCN(CC(=O)[O-])CCN(CC(=O)[O-])CC2)C1)N1CCN(CC(=O)[O-])CCN(CC(=O)[O-])CCN(CC(=O)[O-])CC1.[Gd+3].[Gd+3].[Gd+3].[Gd+3].[Gd+3] (stereo not drawn) [Example 4, Pentagadolinium [4-(1-{[2-(bis{2-[({1,4-bis[({2-[4,7,10-tris(carboxylatomethyl)-1,4,7,10-tetraazacyclododecan-1-yl]propanoyl}amino)acetyl]-1,4-diazepan-6-yl}carbonyl)-amino]ethyl}amino)-2-oxoethyl]amino}-1-oxopropan-2-yl)-7,10-bis(carboxylatomethyl)-1,4,7,10-tetraazacyclododecan-1-yl]acetate]	11.8 ± 0.3	10.1 ± 0.2	13.3	13.2	11.5		>1200
Hexagadolinium 2,2′,2″,2′″,2″″,2′″″,2″″″,2′″″″,2″″″″,2′″″″″,2″″″″″,2′″″″″″,2″″″″″″, 2′″″″″″″,2″″″″″″″, 2′″″″″″″″,2″″″″″″″″,2′″″″″″″″″-(1,4,7-triazonane-1,4,7-triyltris{carbonyl- 1,4-diazepane-6,1,4-triylbis[(2-oxoethane-2,1-diyl)imino(1-oxopropane-1,2-diyl)-1,4,7,10-tetraazacyclododecane-10,1,4,7-tetrayl]})octadecaacetate [Example 6]	12.8 ± 0.3	11.3 ± 0.4	14.2	14.6	13.4	still clear and colorless	>1100
Hexagadolinium 2,2′,2″,2′″,2″″,2′″″,2″″″,2′″″″,2″″″″,2′″″″″,2″″″″″,2′″″″″″,2″″″″″″, 2′″″″″″″,2″″″″″″″, 2′″″″″″″″,2″″″″″″″″,2′″″″″″″″″-{ethane-1,2-diylcarbamoyl-1,4-diazepane-6,1,4-triyltris[(2-oxoethane-2,1-diyl)imino(1-oxopropane-1,2-diyl)-1,4,7,10-tetraazacyclododecane-10,1,4,7-tetrayl]}octadecaacetate [Example 5]	12.4 ± 0.2	10.8 ± 0.3	14.6	14.3	13.0		>1100

Reference: patent publication US11491245B2, “Gadolinium chelate compounds for use in magnetic resonance imaging” (BAYER PHARMA AKTIENGESELLSCHAFT, priority 2015, dated 2022)
